Consider six molecules from patent US20070299032A1, “Method and Composition for Thickening Hair” (Shiseido Company, Ltd., priority 2003, published 2007).

Holding throughout (assay type): cell-based
The subject of assay [1] is FGF-7. Nature of the assay: Increased expression of FGF-7 in human dermal papilla cells by quantitative RT-PCR. As to the method:
The human dermal papilla cells (DPC) used in the experiment consisted of DPC originating in a person that were placed in frozen storage after being isolated and cultured from human scalp provided as a by-product of plastic surgery. […] Only MEM (serum-free) was used for the control cells, and these cells were treated in the same manner. mRNA was extracted from the cultured cells with MagNAPureLC (Roche Diagnostics) at 2, 4, 8 and 24 hours after addition of adenosine followed by cDNA synthesis using the SuperScriptII reverse transcriptase kit (Invitrogen). The expressed amounts of mRNA were compared by real-time PCR using the fluorescent pigment CyberGreen I, which binds to the minor grooves of double-stranded DNA, with the LightCycler-FastStart DNA Master SYBR Green I Kit (Roche Diagnostics) by using the synthesized cDNA as a template. […] This fluorescent intensity reflects the amount of PCR product at that point in time. The amount of expressed gene was hypothesized to be that which is amplified while satisfying Y=A×2^X for the PCR product Y of the initial amount of template A during the exponential amplification period of the PCR product relative to the number of PCR cycles X, and a relative value was calculated from the number of cycles needed to obtain a given amount of PCR product. The following indicates the FGF-7 amplification primers used in this study. An RT-PCR experiment was carried out in the same manner as Experiment 1 with the exception of using two concentrations of adenosine consisting of 10 μM and 100 μM and setting the duration of adenosine treatment to 3 hours. […] The results are shown in FIGS. 4, 5 and 6, respectively.

The test system of assay [2] is FGF-7. Nature of the assay: Increased expression of FGF-7 in human immortalized dermal papilla cells by quantitative RT-PCR. The following applies: human immortalized dermal papilla cells (SV40 large T antigen), adenosine, 2 hours, FIG. 8. As to the method: mRNA was extracted from the cultured cells with MagNAPureLC (Roche Diagnostics) at 2, 4, 8 and 24 hours after addition of adenosine followed by cDNA synthesis using the SuperScriptII reverse transcriptase kit (Invitrogen). The expressed amounts of mRNA were compared by real-time PCR using the fluorescent pigment CyberGreen I, which binds to the minor grooves of double-stranded DNA, with the LightCycler-FastStart DNA Master SYBR Green I Kit (Roche Diagnostics) by using the synthesized cDNA as a template. […] The amount of expressed gene was hypothesized to be that which is amplified while satisfying Y=A×2^X for the PCR product Y of the initial amount of template A during the exponential amplification period of the PCR product relative to the number of PCR cycles X, and a relative value was calculated from the number of cycles needed to obtain a given amount of PCR product. […]

The test system of assay [3] is FGF-7. Nature of the assay: Increased expression of FGF-7 in human outer root sheath cells by quantitative RT-PCR. To be noted: adenosine 10 or 100 μM, 3 hours, FIG. 9. As for the experimental part: The expressed amounts of mRNA were compared by real-time PCR using the fluorescent pigment CyberGreen I, which binds to the minor grooves of double-stranded DNA, with the LightCycler-FastStart DNA Master SYBR Green I Kit (Roche Diagnostics) by using the synthesized cDNA as a template. More specifically, a total volume of 20 μl of reaction liquid (MgCl2: 2 mM, forward and reverse primer: 0.25 μM each) was prepared according to the manual provided using the LightCycler-FastStart DNA Master SYBR Green I Kit (Roche Diagnostics), and a PCR reaction was carried out with the LightCycler (enzyme activation: 95° C./10 minutes; thermal denaturation: 95° C./15 seconds; annealing: 58° C./5 seconds; elongation reaction: 72° C./10 seconds; 40 cycles of thermal denaturation to elongation reaction) followed by monitoring fluorescent intensity at completion of the elongation reaction of each cycle. This fluorescent intensity reflects the amount of PCR product at that point in time. The amount of expressed gene was hypothesized to be that which is amplified while satisfying Y=A×2^X for the PCR product Y of the initial amount of template A during the exponential amplification period of the PCR product relative to the number of PCR cycles X, and a relative value was calculated from the number of cycles needed to obtain a given amount of PCR product. […]

[4] abbreviates: CCPA 100 μM, C1-IB-MECA 50 μM, NECA 10 μM, 3 hours, FIG. 3.
[5] abbreviates: 100 μM, 2 hours, FIGS. 4, 5 and 6.

On to `OC[C@H]1O[C@@H](n2cnc3c(NC4CCCC4)nc(Cl)nc32)[C@H](O)[C@@H]1O` [CCPA, 2-chloro-N^6-cyclopentyladenosine, reference compound], for which the “expression of FGF-7 (relative amount)” value in the assay on FGF-7 [1] (setting [4]) is recorded as “significantly increased”.
On to `Nc1ncnc2c1ncn2[C@@H]1O[C@H](CO)[C@@H](O)[C@H]1O` [adenosine], for which the “expression of FGF-7 (relative amount)” value is reported as “increase dependent on the concentration of adenosine” in the assay with FGF-7 [1] (adenosine 10 μM and 100 μM, 3 hours, FIG. 2); “increased expression of FGF-7” in the assay on FGF-7 [2]; “prominent increase in expression of FGF-7” with FGF-7 [3]. Moreover, the “expression of FGF-7 (relative value)” value in the assay with FGF-7 [1] (adenosine 100 μM, mRNA at 2, 4, 8 and 24 hours, FIG. 1) is listed as “increased considerably”.
As for `CC1C(=O)c2ccccc2OC1c1ccccc1` (stereo not drawn) [3-methylflavanone], in the assay with FGF-7 [1] (100 μM, 2 hours), the “inhibition of increased FGF-7 expression by the adenosine receptor inhibitor 8-SPT” value (from here on “inhibition of increased FGF-7 expression”) is “not observed”. In the assay with FGF-7 [1] (setting [5]), the “expression of FGF-7 (relative amount)” value is “increased expression of FGF-7”.
Regarding `Cc1ccc(C2Oc3ccccc3C(=O)C2C)cc1` (stereo not drawn) [3,4′-dimethylflavanone], the “inhibition of increased FGF-7 expression” value in the assay on FGF-7 [1] (100 μM, 2 hours) was “not observed”. Also, in the assay with FGF-7 [1] (setting [5]), the “expression of FGF-7 (relative amount)” value is reported as “increased expression of FGF-7”.
As for `O=C1CC(c2ccccc2)Oc2ccccc21` (stereo not drawn) [flavanone, reference compound], in the assay on FGF-7 [1] (100 μM, 2 hours), the “inhibition of increased FGF-7 expression” value is reported as “not observed”. Also, the “expression of FGF-7 (relative amount)” value in the assay with FGF-7 [1] (setting [5]) was “increased expression of FGF-7”.
Consider `CCNC(=O)[C@H]1O[C@@H](n2cnc3c(N)ncnc32)[C@H](O)[C@@H]1O` [NECA, N-ethylcarboxyamidoadenosine, reference compound], for which the “expression of FGF-7 (relative amount)” value in the assay with FGF-7 [1] (setting [4]) was “significantly increased”.
